Data set [1] can be described thus: Photoluminescence quantum yield (PLQY). Format: physicochemical. The note with it: DMSO solution. The procedure:
Photoluminescence quantum yield (PLQY) values for the DMSO solution of compounds 6a–g were measured (Table 3, entry 4). […] The PLQY values for the SP derivatives 6f,g (each with an N-dimethylaminophenyl moiety) were 1.6% and 1.4%, respectively. The PLQY value for the SP derivative 6c (with a 4-dimethylaminophenyl moiety) was only 0.1%. The PLQY values for the SP derivatives 6d,e (each with a julolidinyl moiety) were 0.5% and 0.7%, respectively. Previously, we designed naphthalene-2-yl)vinyl)pyridinium groups containing 1,4-dihydropyridine amphiphile, for which the PLQY value for the EtOH solution was 1% [20].

For data set [2], the system named is BHK-21 (Syrian hamster kidney). The data set can be described thus: MTT cytotoxicity assay, BHK-21. The data set is classed as cell-based. The text has this: (§1) For selected compounds, 6a–6f, we performed a determination of the cytotoxicity in a wider variety of cancer and non-cancerous cell lines (see Table S2, Supplementary Materials) in order to learn the characteristic features of selectivity or the similarity of biological properties.
(§2) The HT-1080 (human connective tissue fibrosarcoma, ATCC® CCL-121™), MH-22A (mouse hepatocarcinoma, ECACC Cat. No. 96121721), A-549 (human lung carcinoma, ATCC® CCL-185™), NIH3T3 (Swiss Albino mouse embryo fibroblast, ECACC Cat. No. 93061524), Hek293 (human embryonic kidney, ATCC® CRL-1573™), BHK-21 (Syrian hamster kidney, ATCC® CCL-10™), A-431 (human epidermoid carcinoma, ATCC® CRL-1555™), Saos-2 (human osteosarcoma, ATCC® HTB-85™), HeLa (human epitheloid cervix carcinoma, ATCC® CCL-2™), U937 (human myeloid leukaemia, ATCC® CRL-1593.2™), C6 (rat glioma, ATCC® CCL-107™), and B16-F10 (murine melanoma, ATCC® CRL-6475™) cell lines were obtained from the American Type Culture Collection (ATCC) and European Collection of Authenticated Cell Cultures (ECACC).
(§3) HT-1080, MH-22A, A-549, NIH3T3, BHK-21, A-431, HeLa, and B16-F10 cells were cultured in Dulbecco’s Modified Eagle’s Medium (DMEM) with 2 mM glutamine and 10% foetal bovine serum (FBS). Hek293 cells were cultured in Eagle’s Minimum Essential Medium with 10% foetal bovine serum. U937 cells were cultured in RPMI-1640 Medium with 2 mM glutamine and 10% foetal bovine serum. C6 cells were cultured in Ham’s F12 Medium with 2 mM glutamine and 10% foetal bovine serum. Saos-2 cells were cultured in McCoy’s 5a Medium with 2 mM glutamine and 10% foetal bovine serum. The cells were incubated at 37 °C with 5% CO2, 95% air, and complete humidity. Once ~90% confluence was reached, they were detached using 0.05% trypsin/EDTA and counted. The cells were plated at optimally determined densities for the logarithmic phase of growth. These cells were then suspended at a concentration of 4000 cells/well for HT-1080, MH-22A, A-549, NIH3T3, BHK-21, A-431, HeLa, B16-F10, Hek293, and Saos-2 cells and a concentration of 9000 cells/well for U937, C6, Hek293, and GM08402 cells and added onto a 96-well plate. For background absorption, some wells remained cell free, i.e., as a blank control. Cells were incubated for 72 h at 37 °C and 5% CO2 where they were exposed to a media containing serial dilutions of the investigated compounds (n = 3). Cell viability was measured using the 3-(4,5-dimethylthiazol-2-yl)-2,5-diphenyl-tetrazolium bromide (MTT) assay. In brief, after incubating with compounds, the culture medium was removed and fresh medium with 0.2 mg/mL MTT was added to each well of the plate. After incubation (3 h, 37 °C, 5% CO2), the medium with MTT solution was removed and replaced with 200 µL DMSO and 25 µL Sorenson’s glycine buffer (glycine 0.1 M, NaCl 0.1 M, pH: 10.5 with 0.1 M NaOH). The plate was shaken for 15 min at room temperature and the optical density (OD) of the wells was determined using a multichannel spectrophotometer (Thermo Scientific Multiskan EX) at 540 nm. The quantity of the control cells was taken in calculations as 100%. The IC50 value was calculated using the program Graph Pad Prism® 3.0.
(§4) The HT-1080 (human connective tissue fibrosarcoma, ATCC® CCL-121™), MH-22A (mouse hepatocarcinoma, ECACC Cat.No. 96121721), A-549 (human lung carcinoma, ATCC® CCL-185™), NIH 3T3 (mouse Swiss Albino embryo fibroblast, ECACC Cat.No. 93061524), Hek293 (human embryonic kidney, ATCC® CRL-1573™), BHK-21 (hamster Syrian kidney, ATCC® CCL-10™), A-431 (human epidermoid carcinoma, ATCC® CRL-1555™), Saos-2 (human oste osarcoma, ATCC® HTB-85™) HeLa (human epitheloid cervix carcinoma, ATCC® CCL-2™), U937 (human myeloid leukaemia, ATCC® CRL-1593.2™), C6 (rat glioma, ATCC® CCL-107™), B16-F10 (murine melanoma, ATCC® CRL-6475™) cell lines were obtained from American Type Culture Collection (ATCC) and European Collection of Authenticated Cell Cultures […]
(§5) Table S2. […]

The nature of data set [3]: in vitro. The data set is classed as cell-based, human. The note with it: human, MTT, 72 h.
Excerpt: as §1, §2, §3, §4, §5

A short description of data set [4]: in vitro. The note with it: rat. The data set is classed as cell-based, rat.
Excerpt: as §1, §2
as §3, with “3.0. […]” for “3.0.”

A short description of data set [5]: in vitro. Format: cell-based, murine. The note with it: mouse.
Excerpt: as §1, §2
as §3, with “3.0. […]” for “3.0.”

Data set [6] deals with NIH3T3 (Swiss Albino mouse embryo fibroblast). The data set can be described thus: in vitro. Format: cell-based.
Excerpt: as §1, §2, §3, §4, §5

Setting [7] is: cancer cell line, read-out: Cytotoxicity IC50 A-431.
The mark [8] stands for this setting: cancer cell line, read-out: Cytotoxicity IC50 A-549.
Where [9] appears, read: cancer cell line, read-out: Cytotoxicity IC50 HeLa.
The mark [10] stands for this setting: cancer cell line, read-out: Cytotoxicity IC50 Saos-2.
Where [11] appears, read: cancer cell line, read-out: Cytotoxicity IC50 U937.
Setting [12] is: non-cancerous cell line, read-out: Cytotoxicity IC50 Hek-293.
[13] abbreviates: cancer cell line, MTT, 72 h, read-out: Cytotoxicity IC50 C6.
Where [14] appears, read: cancer cell line, MTT, 72 h, read-out: Cytotoxicity IC50 B16-F10.

Like-named read-outs stand apart in the source and are kept apart here.

The term IC50 denotes the point on the concentration scale where inhibition reaches its midpoint. Turning to `CCCCCCCCCCCC[n+]1ccc(C=Cc2cc(OC)c(OC)c(OC)c2)cc1.[Br-]` [Compound 6a, 4-(3,4,5-trimethoxystyryl)-N-dodecylpyridinium bromide], in data set [1], the “PLQY, %” value is recorded as 15.1%. The “times lower cytotoxicity of 6a compared with 6d, BHK-21” value in data set [2] (Syrian hamster, 72 h) was found to be 12.5 times. Also, the IC50 at 72 h in “in vitro [3]” (setting [7]) turned out to be 0.87 µg/mL; in “in vitro [3]” (setting [8]), 0.87 µg/mL; in the data set “in vitro [3]” (setting [9]), 0.59 µg/mL; in the data set “in vitro [3]” (setting [10]), 0.37 µg/mL; in the data set “in vitro [3]” (setting [11]) it was 1.01 µg/mL; in “in vitro [3]” (setting [12]) it was 0.22 µg/mL. The figures for the half-maximal inhibitory concentration (IC50) at 72 h in “in vitro [4]” (setting [13]) and in the data set “in vitro [5]” (setting [14]) were 0.86 µg/mL and 0.8 µg/mL, respectively. Besides, the “times lower cytotoxicity of 6a compared with 6d, NIH3T3” value in data set [6] (mouse, 72 h) worked out at 21.9 times.

As for `CCCCCCCCCCCCCCCC[n+]1ccc(C=Cc2cc(OC)c(OC)c(OC)c2)cc1.[Br-]` [Compound 6b], the “PLQY, %” value in data set [1] is on record as 12.2%. For the same molecule, the “Cytotoxicity IC50 BHK-21” value in data set [2] is on record as 1.11 µg/mL. Besides, the “Cytotoxicity IC50 NIH3T3” value in data set [6] turned out to be 1.02 µg/mL.

Take `CCCCCCCCCCCCCCCC[n+]1ccc(C=CC=Cc2ccc(OC)cc2)cc1.[Br-]` [Compound 6c, 1-hexadecyl-4-(4-(4-methoxyphenyl)buta-1,3-dien-1-yl)pyridin-1-ium bromide]: the “PLQY, %” value in data set [1] stood at 0.1%. For the same molecule, the values for the IC50 at 72 h in the data set “in vitro [4]” and in “in vitro [5]” were 0.6 µg/mL and 0.49 µg/mL, respectively.

In the case of `CCCCCCCCCCCC[n+]1ccc(C=Cc2cc3c4c(c2)CCCN4CCC3)cc1.[Br-]` [Compound 6d, 1-dodecyl-4-(2-(2,3,6,7-tetrahydro-1H,5H-pyrido[3,2,1-ij]quinolin-9-yl)vinyl)pyridin-1-ium bromide], the “PLQY, %” value in data set [1] is on record as 0.5%. Moreover, the IC50 at 72 h in the data set “in vitro [3]” (setting [7]) came to 0.098 µg/mL; in the data set “in vitro [3]” (setting [8]) it was 0.055 µg/mL; in the data set “in vitro [3]” (setting [9]), 0.055 µg/mL; in the data set “in vitro [3]” (setting [10]), 0.79 µg/mL; in “in vitro [3]” (setting [11]), 0.044 µg/mL; in the data set “in vitro [3]” (setting [12]), 0.012 µg/mL. Also, the IC50 at 72 h is 0.129 µg/mL in the data set “in vitro [4]” (setting [13]) and 0.113 µg/mL in “in vitro [5]” (setting [14]).

Regarding `CCCCCCCCCCCCCCCC[n+]1ccc(C=CC=Cc2cc3c4c(c2)CCCN4CCC3)cc1.[Br-]` [Compound 6e, 1-hexadecyl-4-(4-(2,3,6,7-tetrahydro-1H,5H-pyrido[3,2,1-ij]quinolin-9-yl)buta-1,3-dien-1-yl)pyridin-1-ium bromide], the “PLQY, %” value in data set [1] stood at 0.7%. Besides, the IC50 at 72 h came to 1.9 µg/mL in “in vitro [3]” (setting [7]); 3 µg/mL in the data set “in vitro [3]” (setting [8]); 1.3 µg/mL in “in vitro [3]” (setting [9]); 3.6 µg/mL in the data set “in vitro [3]” (setting [10]); 2.4 µg/mL in “in vitro [3]” (setting [11]); 1.5 µg/mL in the data set “in vitro [3]” (setting [12]). For the same molecule, the 50% inhibitory concentration (IC50) at 72 h was 3.4 µg/mL in “in vitro [4]” (setting [13]) and 2.9 µg/mL in “in vitro [5]” (setting [14]).

For the origin of these results see article PMC10535741, “Styrylpyridinium Derivatives for Fluorescent Cell Imaging” (Pharmaceuticals, 2023).
